Reference: US8748428B2, “Use of a PKC inhibitor” (Novartis AG, priority 2010, dated 2014)

Assays:
Type in all cases: cell-based
[1] = tested on: OCI-Ly3 cells; assay: Growth inhibition, CellTiter-Glo, 5 days; conditions: Homo sapiens, OCI-Ly3, 120 h; ABC DLBCL, CARD11 mutation; 5 days treatment; read-out: growth inhibitory IC50, OCI-Ly3
Excerpt: (§1) Two pharmacological PKC inhibitors: (i) the pan-PKC inhibitor, Sotrastaurin, also known as AEB071, and (ii) the PKCa/b-selective compound, 3-[2-chloro-7-[(dimethylamino)methyl]-1-naphthalenyl]-4-[7-[2-(2-methoxyethoxy)ethoxy]-1H-indol-3-yl]-1H-pyrrole-2,5-dione (referred to herein as “Compound B”), were used to evaluate the proliferation of several diffuse large B cell lymphoma (DLBCL) lines. The IKKb-selective inhibitors N-(6-chloro-7-methoxy-9H-β-carbolin-8-yl)-2-methylnicotinamide (referred to herein as “MLN120B”) and N-[(2R,6R)-2,6-dimethyl-4-piperidinyl]-4-(7-fluoro-1H-indol-3-yl)-2-pyrimidinamine (referred to herein as “Compound A”) were used as control compounds. ABC DLBCL cell lines (OCI-LY3, OCI-LY10, HBL1, U2932, TMD8, Su-DHL2) and GC DLBCL cell lines (Su-DHL4, DB, K-422) were treated for 5 days with PKC inhibitors (A) Sotrastaurin (AEB071) or (B) Compound B; IKKb inhibitors (C) MLN120B or (D) Compound A. Cells were plated in 96-well plates (Corning, #3358) at 5000 cells/well in 100 μL and treated with DMSO or inhibitors at concentrations ranging from 160 nM to 20 μM (2-fold dilutions). Following 5 days of treatment, cells were lysed with CellTiter-Glo® Luminescent Cell Viability Assay reagent (Promega, G7573), lysates were transferred to opaque 96-well plates (Corning, #3971), and luminescence signal was read using the Envision. Percent growth was calculated relative to median DMSO signal.
(§2) While all ABC DLBCL cell lines were sensitive to IKK inhibitors, their response to PKC inhibitors varied strongly (Table 1A below). The cell lines that are insensitive to PKC inhibitors, OCI-Ly3 and Su-DHL2, have reported mutations in CARD11 and A20, respectively. […] The fact that these oncogenic lesions are thought to function downstream of PKCβ in CBM-NFkB signaling provides a molecular rationale for their insensitivity. […] See, Compagno, M., et al, “Mutations of multiple genes cause deregulation of NF-κB in diffuse large B-cell lymphoma” Nature, 459 (7247), 717-722 (2009)). […] Tables 1A and 1B below show the growth inhibitory IC50 values, which were determined by measuring ATP concentration (Cell Titer Glo), for the indicated compounds in the indicated cell lines. IC50 values were determined as the concentration of compound that leads to 50% reduction of cell growth.

[2] = tested on: Su-DHL2 cells; assay: Growth inhibition, CellTiter-Glo, 5 days; conditions: Homo sapiens, SU-DHL-2, 120 h; ABC DLBCL, A20 mutation; 5 days treatment; read-out: growth inhibitory IC50, Su-DHL2
Excerpt: as §1, §2

[3] = tested on: TMD8 cells; assay: Growth inhibition, CellTiter-Glo, 5 days; conditions: Homo sapiens, TMD8, 120 h; ABC DLBCL, CD79B mutation; 5 days treatment; read-out: growth inhibitory IC50, TMD8
Excerpt: as §1, §2

[4] = tested on: HBL1 cells; assay: Growth inhibition, CellTiter-Glo, 5 days; conditions: HBL1, 120 h; ABC DLBCL, CD79B mutation; 5 days treatment; read-out: growth inhibitory IC50, HBL1
Excerpt: as §1, §2

[5] = tested on: Su-DHL4 cells; assay: Growth inhibition, CellTiter-Glo, 5 days; conditions: Homo sapiens, SU-DHL-4, 120 h; GC DLBCL, no NFkB mutation; 5 days treatment; read-out: growth inhibitory IC50, Su-DHL4
Excerpt: as §1, §2

[6] = tested on: U2392 cells; assay: Growth inhibition, CellTiter-Glo, 5 days; conditions: 120 h; ABC DLBCL, TAK1 mutation; 5 days treatment; read-out: growth inhibitory IC50, U2392
Excerpt: as §1, §2

[7] = tested on: DB cells; assay: Growth inhibition, CellTiter-Glo, 5 days; conditions: Homo sapiens, 120 h, GC DLBCL, no NFkB mutation, 5 days treatment, read-out: growth inhibitory IC50, DB
Excerpt: as §1, §2

[8] = tested on: IL-6 secretion in HBL1 cells; assay: IL-6 secretion (Quantikine ELISA); conditions: HBL1, ELISA of supernatant, 48 hours
Protocol: (§3) The fact that IL-6 is secreted from cells allowed for monitoring of IL-6 levels in cell supernatants. IL-6 secretion was determined by Quantikine ELISA using supernatant from treated cells. Cells were washed and plated at 100,000 cells/well in 100 ul in fresh media in round-bottom 96-well plates (Corning, #3358). The cells were then treated with DMSO or inhibitors at concentrations ranging from 80 nM to 10 uM (2-fold dilutions), and incubated at 37° C. for 48 hours. Then the conditioned media was transferred to v-bottom 96-well plates (Nunc, #12565436). The level of IL-6 secretion was determined by the Quantkine colorimetric ELISA kit from (R & D Systems, #D6050), according to the manufacturer's instructions. For the IL-6 ELISA, the conditioned media was diluted 1:2 with fresh media (except ion: the HBL1 conditioned media was not diluted, it was used 1:1). In FIG. 2, IL-6 secretion for each dose is expressed as a percentage of IL-6 secretion from cells treated with DMSO.

[9] = tested on: IL-6 secretion in TMD8 cells; assay: IL-6 secretion (Quantikine ELISA); conditions: Homo sapiens; TMD8, ELISA of supernatant, 48 hours
Protocol: as §3

[10] = tested on: K422 cells; assay: Growth inhibition, CellTiter-Glo, 5 days; conditions: 120 h; GC DLBCL, no NFkB mutation; 5 days treatment; read-out: growth inhibitory IC50, K422
Excerpt: as §1, §2

[11] = tested on: OCI-Ly10 cells; assay: Growth inhibition, CellTiter-Glo, 5 days; conditions: Homo sapiens, OCI-Ly10, 120 h; ABC DLBCL, CD79A mutation; 5 days treatment; read-out: growth inhibitory IC50, OCI-Ly10
Excerpt: as §1, §2

[12] = tested on: IL-6 mRNA in TMD8 cells; assay: IL-6 mRNA expression (Taqman); conditions: TMD8, 24 hours, 10 nM to 10 uM
Excerpt: Constitutive activation of the NFkB pathway is a molecular hallmark of ABC DLBCL cells and is required for their proliferation and survival. See Davis, R. E., et al., J Exp Med, 194(12), 1861-1874 (2001). To confirm that the growth inhibitory effect in response to PKC inhibition is mediated through modulation of NFkB pathway signaling, the expression of NFkB pathway genes were monitored in response to AEB071 treatment. The NFkB-pathway-induced cytokine IL-6 was used as a marker to study NFkB pathway modulation by PKC inhibitors. See Lam, L. T., et al., Blood 111(7):3701-13 (2008). To measure IL-6 mRNA levels, cells were plated in […] plates in 2 ml media at 2M/ml, then treated with DMSO or inhibitors from 10 nM to 10 uM (4-fold dilutions) for 24 hours. Total RNA was harvested using the RNeasy kit (Qiagen, #74104) and cDNA was made from 1 μg total RNA using the High Capacity cDNA kit (ABI, #4368814), according to manufacturer's protocols. Taqman probes (ABI: IL-6, Hs00174131_m1) were used with Gene Expression Master Mix (ABI, 4369510) to determine the amount of mRNA expression for IL-6 relative to an endogenous control gene (ABI: TBP, 4326322E) and the DMSO control using the delta-delta Ct method.

Row | SMILES | IC50 [1] [µM] | IC50 [2] [µM] | IC50 [3] [µM] | IC50 [4] [µM] | IC50 [5] [µM] | IC50 [6] [µM] | IC50 [7] [µM] | IC50 [8] [µM] | IC50 [9] [µM] | IC50 [10] [µM] | IC50 [11] [µM] | IL-6 mRNA expression [12]
1 | O=C1NC(=O)C(c2c[nH]c3ccccc23)=C1c1nc(N2CCNCC2)nc2ccccc12 [Compound D, 3-(1H-Indol-3-yl)-4-[2-(piperazin-1-yl)quinazolin-4-yl]pyrrole-2,5-dione] | 15 | > 20 | 0.2 | 0.2 | 15 | 3 | > 20 |  |  |  |  | 
2 | COCCOCCOc1cccc2c(C3=C(c4c(Cl)ccc5ccc(CN(C)C)cc45)C(=O)NC3=O)c[nH]c12 [Compound B, 3-[2-chloro-7-[(dimethylamino)methyl]-1-naphthalenyl]-4-[7-[2-(2-methoxyethoxy)ethoxy]-1H-indol-3-yl]-1H-Pyrrole-2,5-dione] | > 20 | 15 | 0.2 | 0.5 | 7.5 | 10 | > 20 | < 0.2 | < 0.2 | 11 | 0.5 | reduced IL-6 mRNA expression in a dose-dependent manner
3 | CN(C)C[C@@H]1CCn2cc(c3ccccc32)C2=C(C(=O)NC2=O)c2cn(c3ccccc23)CCO1 [LY333531, (9S)-9-[(dimethylamino)methyl]-6,7,10,11-tetrahydro-9H,18H-5, 21:12,17-dimethenodibenzo[e,k]pyrrolo[3,4-h][1,4,13]oxadiazacyclohexadecine-18,20(19H)-dione] |  |  |  |  |  |  |  |  |  |  |  | reduced IL-6 mRNA expression in a dose-dependent manner
4 | COc1c(Cl)cc2c([nH]c3cnccc32)c1NC(=O)c1cccnc1C [MLN120B, N-(6-chloro-7-methoxy-9H-β-carbolin-8-yl)-2-methylnicotinamide] | 12 | 10 | 10 | 10 | > 20 | 10 | > 40 |  |  | > 40 | 10 | 
5 | C[C@@H]1CC(Nc2nccc(-c3c[nH]c4c(F)cccc34)n2)C[C@@H](C)N1 (stereo partly drawn) [Compound A, N-[(2R,6R)-2,6-dimethyl-4-piperidinyl]-4-(7-fluoro-1H-indol-3-yl)-2-pyrimidinamine] | 0.4 | 15 | 0.2 | 2.5 | 10 | 2.5 | > 20 |  |  | 10 | 0.3 | 
